In the supplement of paper PMC10307832:

Tests used:
Test in all cases: relative viability (nuclei count vs DMSO), 5 days (fraction); higher = more cells survive
SW 900 = test system: SW 900
Outline: (§1)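 Values are medians from duplicate plates. Each reflects relative viability, defined as the nuclei count of treated wells over that of vehicle wells. Lung cancer cell lines in 1536-well plates were pin-tool dosed one day after seeding with one drug alone or with a fixed anchor-drug dose plus five library-drug doses (not always all listed) in √10 steps, then fixed, stained and imaged at 4× after 5 days.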

NCI-H23 = test system: NCI-H23
Outline: as §1

NCI-H2347 = test system: NCI-H2347
Outline: as §1

ChaGo-K-1 = test system: ChaGo-K-1
Outline: as §1

NCI-H2085 = test system: NCI-H2085
Outline: as §1

201T = test system: 201T
Outline: as §1

NCI-H1651 = test system: NCI-H1651
Outline: as §1

NCI-H1975 = test system: NCI-H1975
Outline: as §1

NCI-H1755 = test system: NCI-H1755
Outline: as §1

NCI-H460 = test system: NCI-H460
Outline: as §1

NCI-H1734 = test system: NCI-H1734
Outline: as §1

NCI-H838 = test system: NCI-H838
Outline: as §1

LXF-289 = test system: LXF-289
Outline: as §1

UMC-11 = test system: UMC-11
Outline: as §1

NCI-H1437 = test system: NCI-H1437
Outline: as §1

NCI-H2342 = test system: NCI-H2342
Outline: as §1

H3255 = test system: H3255
Outline: as §1

NCI-H441 = test system: NCI-H441
Outline: as §1

NCI-H2023 = test system: NCI-H2023
Outline: as §1

HOP-62 = test system: HOP-62
Outline: as §1

NCI-H2405 = test system: NCI-H2405
Outline: as §1

EMC-BAC-2 = test system: EMC-BAC-2
Outline: as §1

Structure (SMILES): Oc1nc(-c2ccc(C(F)(F)F)cc2)nc2c1CSCC2 [XAV939] + Nc1ncn([C@H]2C[C@H](O)[C@@H](CO)O2)c(=O)n1 [Decitabine] (partner 2 µM)
- relative viability (SW 900; first compound 0.253 µM): 0.454
- relative viability (SW 900; first compound 0.8 µM): 0.438
- relative viability (SW 900; first compound 2.53 µM): 0.428
- relative viability (NCI-H23; first compound 0.08 µM): 0.312
- relative viability (NCI-H23; first compound 0.8 µM): 0.32
- relative viability (NCI-H23; first compound 2.53 µM): 0.273
- relative viability (NCI-H2347; first compound 0.08 µM): 0.62
- relative viability (NCI-H2347; first compound 0.253 µM): 0.586
- relative viability (NCI-H2347; first compound 0.8 µM): 0.607
- relative viability (NCI-H2347; first compound 2.53 µM): 0.517
- relative viability (ChaGo-K-1; first compound 0.08 µM): 0.495
- relative viability (ChaGo-K-1; first compound 0.253 µM): 0.505
- relative viability (ChaGo-K-1; first compound 0.8 µM): 0.507
- relative viability (ChaGo-K-1; first compound 2.53 µM): 0.494
- relative viability (NCI-H2085; first compound 0.08 µM): 0.536
- relative viability (NCI-H2085; first compound 0.253 µM): 0.494
- relative viability (NCI-H2085; first compound 0.8 µM): 0.537
- relative viability (NCI-H2085; first compound 2.53 µM): 0.462
- relative viability (201T; first compound 0.08 µM): 0.87
- relative viability (201T; first compound 0.253 µM): 0.901
- relative viability (201T; first compound 0.8 µM): 0.779
- relative viability (201T; first compound 2.53 µM): 0.788
- relative viability (NCI-H1651; first compound 0.08 µM): 0.606
- relative viability (NCI-H1651; first compound 0.253 µM): 0.399
- relative viability (NCI-H1651; first compound 0.8 µM): 0.625
- relative viability (NCI-H1651; first compound 2.53 µM): 0.426
- relative viability (NCI-H1975; first compound 0.08 µM): 0.382
- relative viability (NCI-H1975; first compound 0.253 µM): 0.357
- relative viability (NCI-H1975; first compound 0.8 µM): 0.379
- relative viability (NCI-H1975; first compound 2.53 µM): 0.354
- relative viability (NCI-H1755; first compound 0.08 µM): 0.693
- relative viability (NCI-H1755; first compound 0.253 µM): 0.677
- relative viability (NCI-H1755; first compound 0.8 µM): 0.72
- relative viability (NCI-H1755; first compound 2.53 µM): 0.691
- relative viability (NCI-H460; first compound 0.08 µM): 0.599
- relative viability (NCI-H460; first compound 0.253 µM): 0.443
- relative viability (NCI-H460; first compound 0.8 µM): 0.501
- relative viability (NCI-H460; first compound 2.53 µM): 0.458
- relative viability (NCI-H1734; first compound 0.08 µM): 0.489
- relative viability (NCI-H1734; first compound 0.253 µM): 0.433
- relative viability (NCI-H1734; first compound 0.8 µM): 0.494
- relative viability (NCI-H1734; first compound 2.53 µM): 0.475
- relative viability (NCI-H838; first compound 0.08 µM): 0.488
- relative viability (NCI-H838; first compound 0.253 µM): 0.442
- relative viability (NCI-H838; first compound 0.8 µM): 0.458
- relative viability (NCI-H838; first compound 2.53 µM): 0.384
- relative viability (LXF-289; first compound 0.08 µM): 0.388
- relative viability (LXF-289; first compound 0.253 µM): 0.38
- relative viability (LXF-289; first compound 0.8 µM): 0.416
- relative viability (LXF-289; first compound 2.53 µM): 0.345
- relative viability (UMC-11; first compound 0.08 µM): 0.633
- relative viability (UMC-11; first compound 0.253 µM): 0.616
- relative viability (UMC-11; first compound 0.8 µM): 0.467
- relative viability (UMC-11; first compound 2.53 µM): 0.26
- relative viability (NCI-H1437; first compound 0.08 µM): 0.626
- relative viability (NCI-H1437; first compound 0.253 µM): 0.478
- relative viability (NCI-H1437; first compound 0.8 µM): 0.539
- relative viability (NCI-H1437; first compound 2.53 µM): 0.431
- relative viability (NCI-H2342; first compound 0.08 µM): 0.832
- relative viability (NCI-H2342; first compound 0.253 µM): 0.669
- relative viability (NCI-H2342; first compound 0.8 µM): 0.72
- relative viability (NCI-H2342; first compound 2.53 µM): 0.427
- relative viability (H3255; first compound 0.08 µM): 0.637
- relative viability (H3255; first compound 0.253 µM): 0.56
- relative viability (H3255; first compound 0.8 µM): 0.576
- relative viability (H3255; first compound 2.53 µM): 0.386
- relative viability (NCI-H441; first compound 0.08 µM): 0.25
- relative viability (NCI-H441; first compound 0.253 µM): 0.253
- relative viability (NCI-H441; first compound 0.8 µM): 0.232
- relative viability (NCI-H441; first compound 2.53 µM): 0.251
- relative viability (NCI-H2023; first compound 0.08 µM): 0.207
- relative viability (NCI-H2023; first compound 0.253 µM): 0.232
- relative viability (NCI-H2023; first compound 0.8 µM): 0.212
- relative viability (NCI-H2023; first compound 2.53 µM): 0.228
- relative viability (HOP-62; first compound 0.08 µM): 0.226
- relative viability (HOP-62; first compound 0.253 µM): 0.193
- relative viability (HOP-62; first compound 0.8 µM): 0.223
- relative viability (HOP-62; first compound 2.53 µM): 0.157
- relative viability (NCI-H2405; first compound 0.08 µM): 0.776
- relative viability (NCI-H2405; first compound 0.253 µM): 0.721
- relative viability (NCI-H2405; first compound 0.8 µM): 0.709
- relative viability (NCI-H2405; first compound 2.53 µM): 0.689
- relative viability (EMC-BAC-2; first compound 0.08 µM): 1.04
- relative viability (EMC-BAC-2; first compound 0.253 µM): 0.935
- relative viability (EMC-BAC-2; first compound 0.8 µM): 0.884
- relative viability (EMC-BAC-2; first compound 2.53 µM): 0.721
